# Test results taken from US8097640B2, “Prophylactic or therapeutic agent for diabetic maculopathy” (Sanwa Kagaku Kenkyusho Co., Ltd., priority 2004, dated 2012).
# “And” between values parts separate entries of the source, which are not always exact repeats. Equal values may be shown once.
# Experiments:
# [1] = test system: edema in a retinal visual cell layer of diabetic rats; experiment: Rat Test 1: edema in retinal visual cell layer after intraocular ischemia/reperfusion in STZ diabetic rats; format: in vivo, Sprague Dawley rats; details: 32 mg/kg oral once a day, 2 weeks plus 2 days reperfusion
# Experimental: (§1) Diabetes mellitus was induced in male Sprague Dawley rats (8-week-old) weighing about 250 g by injecting streptozotocin (STZ manufactured by Sigma) intravenously into their tail at the dose of 60 mg/kg. One week after the treatment with STZ, serum glucose was measured, and rats with at least 300 mg/dl glucose were then used in the experiment as diabetic rats. The set groups were the following 3 groups, and after 2 weeks after the treatment with STZ, 5% gum arabic solution or SNK-860 solution was orally administered once a day. • (1) Normal control group (5 rats): Given 5% gum arabic solution in a ratio of 5 ml/kg. • (2) Diabetic control group (7 rats): Given 5% gum arabic solution in a ratio of 5 ml/kg. • (3) Diabetic group given 32 mg/kg SNK-860 (4 rats): Given a suspension of SNK-860 (32 mg/5 ml) in 5% gum arabic solution in a ratio of 5 ml/kg.
# (§2) After administration for 2 weeks, intraocular ischemia was caused by the treatment described below. After the treatment was finished, the animals were maintained as usual for 2 days, and thereafter, the eyeballs were excised and histologically evaluated. Administration of the pharmacological agent was also conducted for a period (2 days) of reperfusion after ischemic treatment. […]
# (§3) In each of the resulting retinal images, the thickness of the visual cell layer was measured. […]
# [2] = test system: nuclei in the inner retinal layer (ganglion cell layer) of diabetic rats; experiment: Rat Test 1: loss of nuclei from ganglion cells after ischemia/reperfusion in STZ diabetic rats; format: in vivo, Sprague Dawley rats; details: 32 mg/kg oral once a day, 4 rats
# Experimental: as §1, §2, §3
# [3] = test system: edema in a retinal visual cell layer of diabetic rats; experiment: Rat Test 2: edema in retinal visual cell layer after intraocular ischemia/reperfusion in STZ diabetic rats; format: in vivo
# Experimental: The test was carried out in accordance with Efficacy Pharmacological Test Example 1. The set groups were the following 4 groups, and from 2 weeks after the treatment with STZ, 5% gum arabic solution or SNK-860 solution was orally administered once a day. • (1) Normal control group (10 rats): Given 5% gum arabic solution in a ratio of 5 ml/kg. • (2) Diabetic control group (9 rats): Given 5% gum arabic solution in a ratio of 5 ml/kg. • (3) Diabetic group given 2 mg/kg SNK-860 (10 rats): Given a suspension of SNK-860 (2 mg/5 ml) in 5% gum arabic solution in a ratio of 5 ml/kg. • (4) Diabetic group given 32 mg/kg SNK-860 (9 rats): Given a suspension of SNK-860 (32 mg/5 ml) in 5% gum arabic solution in a ratio of 5 ml/kg. Retinal ischemia produced by increasing the intraocular pressure was in accordance with Efficacy Pharmaceutical Test Example 1. Histological evaluation was also in accordance with Efficacy Pharmaceutical Test Example 1.
# [4] = test system: edema in the macular central fovea of diabetic monkeys; experiment: Monkey Test: thickness and volume of macular central fovea (OCT) after ischemia/reperfusion in STZ diabetic monkeys; format: in vivo, Macaca fascicularis
# Experimental: Diabetes mellitus was induced in male monkeys (Macaca fascicularis) (3-year-old) weighing about 2.1 to 2.4 kg by intravenously injecting STZ into their foreleg vein at the dose of 80 mg/kg. Two days after the treatment with STZ, blood glucose level was measured, and monkeys with at least 200 mg/dl glucose were then used in the experiment as diabetic monkeys. Insulin was administered subcutaneously once or twice per day into monkeys showing a blood glucose level of 300 mg/dl. The set groups were the following 3 groups, and from 2 weeks after the treatment with STZ, 5% gum arabic solution or SNK-860 solution was orally administered once a day. • (1) Normal control group (4 monkeys): Given 5% gum arabic solution in a ratio of 5 ml/kg. • (2) Diabetic control group (6 monkeys): Given 5% gum arabic solution in a ratio of 5 ml/kg. • (3) Diabetic group given 32 mg/kg SNK-860 (4 monkeys): Given a suspension of SNK-860 (32 mg/5 ml) in 5% gum arabic solution in a ratio of 5 ml/kg.
# After administration for 2 weeks, intraocular ischemic treatment was carried out as described below, and after the treatment was finished, the animals were maintained as usual for 7 days. Before the ischemic treatment and 7 days after treatment, the thickness and volume of the macular central fovea (in the diameter range of 1 mm from the center of the macula lutea) were measured by an OCT scanner (Stratus OCT, Carl Zeiss). Administration of the pharmacological agent was also conducted for the period (7 days) of reperfusion after the ischemic treatment.
# Retinal ischemia produced by increasing intraocular pressure was in accordance with Efficacy Pharmaceutical Test Example 1. However, the size of the needle used was 25 G×½ (Terumo). After a mydriatic (Mydrin P manufactured by Santen Pharmaceutical) was dropped onto the right eye, the monkey was anesthetized by intramuscularly administering ketaral (Sankyo Life Tech). Subsequently, a local anesthetic (Benoxyl eye drop 0.4%) was dropped onto the eye, and the monkey was prevented from blinking with an eyelid speculum. Anesthesia with ketaral was additionally carried out when necessary.
# The thickness and volume of the macular central fovea were measured in the following manner. After a mydriatic (Mydrin P) was dropped onto the right eye of the monkey to dilate the pupil of the eye sufficiently, the monkey was anesthetized by intramuscularly administering Ketaral. Thereafter, the monkey was allowed to sit on a monkey chair and the head was fixed. […] On the basis of the resulting cross-sectional macular image, the thickness and volume of the macular central fovea were analyzed.
# [5] = test system: patients with diabetic macular edema; experiment: Clinical Results: macula lutea thickness (OCT), corrected visual acuity and safety in patients with diabetic macular edema; format: in vivo, humans
# Experimental: Among patients with diabetic maculopathy, 10 patients with diabetic macular edema having a retinal thickening or a hard exudates in a posterior pole of the retina were subjects. SNK-860 was orally administered in a dose of 30 mg (2 tablets each containing 15 mg SNK-860) once a day before breakfast for 8 weeks. During this test period, simultaneous use of eparlestat, intravitreal injection and sub-Tenon injection of an adrenal cortical hormone, and photocoagulation and vitrectomy were prohibited. Basic therapy of diabetes mellitus was carried out so as to give good blood glucose control throughout the test period.
# Evaluation was carried out in terms of the thickness of the macular central fovea (in the diameter range of 1 mm from the center of macula lutea) and the thickness at the center of the central fovea measured by optical coherence tomography (OCT, Carl Zeiss), as well as corrected visual acuity (Log MAR).
# Log MAR (Log Minimum Angle of Resolution) is one kind of logarithmic visual acuity, which is visual acuity expressed in logarithmic minimum angle of resolution. Decimal visual acuity 1.0 used frequently in Japan is 0.0 in terms of Log MAR, and decimal visual acuity 0.1 is 1.0 in Log MAR. A log MAR visual acuity of 0.1 to 0.5 corresponds to a decimal visual acuity of 0.8 to 0.32.
# [6] = 32 mg/kg oral once a day for 2 weeks, before ischemia
# [7] = 32 mg/kg oral once a day, 7 days after ischemia
# [8] = 30 mg oral once a day for 8 weeks, 12 eyes, mean ± standard deviation
# [9] = 30 mg oral once a day for 8 weeks, out of 12 eyes
# [10] = baseline before administration, 12 eyes in 10 cases, mean ± standard deviation
smiles,measurement,setting,value
"NC(=O)[C@@H]1C[C@]2(NC(=O)NC2=O)c2cc(F)ccc2O1 [SNK-860, (2S,4S)-6-Fluoro-2′,5′-dioxospiro[chroman-4,4′-imidazolidine]-2-carboxamide]",edema / thickness of the visual cell layer (ischemic/re-perfused eye vs untreated eye),[1],no edema was observed
same,loss of nuclei from ganglion cells,[2],loss of nuclei was not observed in all 4 rats
same,inhibitory action on edema in visual cell layer,[3]; 2 mg/kg oral once a day,no inhibitory action on edema was observed
same,inhibitory action on edema in visual cell layer,[3]; 32 mg/kg oral once a day,an evident inhibitory action on edema was observed
same,formation of edema in macular central fovea,[4]; 32 mg/kg oral once a day,formation of edema or its change was not observed
same,"Average macula lutea thickness, Before ischemia",[4]; [6],157 ± 6 μm
same,"Average macula lutea volume, Before ischemia",[4]; [6],0.123 ± 0.005 mm^3
same,"Average macula lutea thickness, 7 days after ischemia",[4]; [7],158 ± 2 μm
same,"Average macula lutea volume, 7 days after ischemia",[4]; [7],0.124 ± 0.001 mm^3
same,"Corrected visual acuity, Week 8",[5]; [8],0.24 Log MAR and 0.24 ± 0.20 Log MAR
same,"Macula lutea thickness, Center of central fovea, Week 8",[5]; [8],298.7 μm and 298.7 ± 90.6 μm
same,"Macula lutea thickness, Central fovea (diameter: 1 mm), Week 8",[5]; [8],300.4 μm and 300.4 ± 74.4 μm
same,"Corrected visual acuity (eye number), 1-stage deterioration",[5]; [9],1 eyes
same,"Corrected visual acuity (eye number), 1-stage improvement",[5]; [9],2 eyes
same,"Corrected visual acuity (eye number), 2-stage improvement",[5]; [9],3 eyes
same,"Corrected visual acuity (eye number), Unchanged",[5]; [9],6 eyes
same,side effects (safety),"[5]; 30 mg oral once a day for 8 weeks, patients",no particularly problematic side effects were recognized
same,"Macula lutea thickness, Center of central fovea, When initiated",[5]; [10],323.1 μm and 323.1 ± 111.4 μm
same,"Macula lutea thickness, Central fovea (diameter: 1 mm), When initiated",[5]; [10],324.3 μm and 324.3 ± 87.7 μm
same,"Corrected visual acuity, When initiated","[5]; baseline before administration, 12 eyes, mean ± standard deviation",0.30 Log MAR and 0.30 ± 0.22 Log MAR
